# Source: patent US11985974B2, “Antimicrobial ferulic acid derivatives and uses thereof” (WISCONSIN ALUMNI RESEARCH FOUNDATION, priority 2014, dated 2024)
# Key:
# [1] = tested on: yeast cells; experiment: Cell leakage assay (FungaLight, flow cytometry); format: cell-based, Saccharomyces cerevisiae; details: 4 h
# Method: A FungaLight Cell Viability Assay (L34952; Invitrogen) using a Guava Flow Cytometer (Millipore) was used to determine if poacic acid caused membrane damage. The population of stained cells (damaged integrity) vs. nonstained cells can be determined by flow cytometry. Caspofungin (50 ng/mL) was included as a positive control. MMS and DMSO were included as a noncell wall-targeting control and a solvent control, respectively. To test the effects of the compounds on both active and arrested cells, log-phase cultures were washed with 1×PBS and resuspended to an OD0.5 in either YPD medium or YP (no carbon source) in the presence of the drugs (n=3) for 4 h at 30° C. The cells were then stained and immediately read by flow cytometry. One-way ANOVA and Tukey's test were used to calculate the difference between drug treatments among cells with arrested growth.
# [2] = tested on: yeast deletion collection; experiment: Chemical genomic analysis of yeast deletion collection; format: cell-based, Saccharomyces cerevisiae
# Method: Chemical genomic analysis of poacic acid was performed as described previously (Parsons et al. 2006, Fung et al. 2014). The tested yeast deletion collection had ˜4,000 strains using the genetic background described by Andrusiak (Andrusiak 2012). The optimal inhibitory concentration of poacic acid for chemical genomic profiling [70-80% growth vs. solvent control in yeast extract-peptone-galactose medium after 24 h of growth] was determined using an eight-point dose curve. A concentration of 88 μg/mL inhibited growth within this range; 200-μL cultures of the pooled deletion collection of S. cerevisiae were grown with 88 μg/mL poacic acid (n=3) or a DMSO control in triplicate for 48 h at 30° C. Genomic DNA was extracted using the Epicentre MasterPure Yeast DNA Purification Kit. Mutant-specific molecular barcodes were amplified with specially designed multiplex primers (Smith et al. 2009). The barcodes were sequenced using an Illumina MiSeq. Replicates of each condition, poacic acid (n=3) or DMSO (n=2), were sequenced. The barcode counts for each yeast deletion mutant in the presence of poacic acid were compared to the DMSO control conditions to determine sensitivity or resistance of individual strains (the chemical genetic interaction score) (Parsons et al. 2006). To determine a P value for each top sensitive and resistant mutant, we used the EdgeR package (Robinson et al. 2014, Robinson et al. 2010). A Bonferroni-corrected hypergeometric distribution test was used to search for significant enrichment of GO terms among the top 10 sensitive and resistant deletion mutants (Boyle et al. 2004). To understand the pathways that were most affected by poacic acid, we developed a protein complex/pathway score based on the summation of the z scores for each complex/pathway (Pathway z score). Correlation of the chemical genomic profile of poacic acid with the yeast genetic interaction network was performed as previously described (Costanzo et al. 2010).
# For each complex, the chemical genetic interaction score of the genes in the complex with the compound was summed. To determine significance, the expectations for such a sum for random sets of genes of equal size were calculated. The random sets of equal size were expected to have means equal to the background mean and SDs equal to the background SD/sqrt(n). With this information, a z score (number of SDs from the expected mean) for each complex or pathway can be computed: Pathway z-score=(Σ−μ)/(σ×sqrt(n)), where Σ=sum of the chemical genetic interaction scores of genes in the complex, μ=mean of the chemical genetic interaction scores of the compounds with all genes studies, σ=SD of chemical genetic interaction scores of the compounds with all genes in the study, and n=size of the complex. Multivariate Morphological Analysis
# [3] = tested on: S. sclerotiorum; experiment: Inhibition of S. sclerotiorum in planta on detached soybean leaves; format: in vivo, Sclerotinia sclerotiorum on soybean (Williams 82); details: single aerosol treatment 500 μg/mL before inoculation, up to 120 h postinoculation
# Method: To test inhibition in liquid culture, a dose curve of 0, 125, 250, and 500 μg/mL poacic acid in 100 mL potato dextrose broth (n=3) was used. Cultures of S. sclerotiorum strain 1980 were inoculated with 100 μL homogenized mycelia and grown at 25° C. for 48 h. The mycelia in the liquid media were dried and weighed. The growth inhibition of poacic acid on solid agar cultures (potato dextrose agar) was assessed by generating replicate plates (n=3) containing 0, 125, 250, and 500 μg/mL poacic acid. Plates were inoculated with an actively growing plug of S. sclerotiorum and grown at 25° C. The mycelial radial growth after 48 h was measured Inhibition of S. sclerotiorum in planta was tested by inoculating detached soybean leaves of the commercial variety Williams 82 with an agar plug of actively growing S. sclerotiorum mycelia. Leaves were treated one time before inoculation with either an aerosol spray of water with DMSO (control) or a 500 μg/mL solution of poacic acid. Leaves were incubated in a moist environment, and lesion development was monitored up to 120 h postinoculation. […] The growth inhibition of poacic acid was assessed at 0, 500, 1,000, and 1,500 μg/mL in replicate plates (n=3). […] Colony diameter was monitored for each treatment in a time-course experiment. […]
smiles,measurement,setting,value
"COc1cc(/C=C/c2cc(/C=C/C(=O)O)cc(OC)c2O)ccc1O [poacic acid, (E)-4-Hydroxy-3-{2-[(E)-4-hydroxy-3-methoxystyryl]}-5-methoxycinnamic acid]",cell leakage (propidium iodide uptake),[1]; actively growing cells (YPD),caused rapid cell leakage
same,cell leakage (propidium iodide uptake),[1]; arrested cells without carbon source (YP),leakage was still significantly greater
same,growth vs. solvent control,"[2]; 88 μg/mL, yeast extract-peptone-galactose medium, 24 h",70-80%
same,Z Score,"[2]; ACK1 deletion mutant, sensitive",ACK1 −9.09 1.39E
same,Z Score,"[2]; ALG6 deletion mutant, sensitive",ALG6 −8.30 1.82E
same,Z Score,"[2]; BCK1 deletion mutant, sensitive",BCK1 −12.91 2.58E
same,Z Score,"[2]; CSG2 deletion mutant, resistant",CSG2 5.89 1.57E
same,Z Score,"[2]; CWH43 deletion mutant, sensitive",CWH43 −10.99 7.98E
same,Z Score,"[2]; DFG5 deletion mutant, resistant",DFG5 5.51 1.34E
same,Z Score,"[2]; DSF2 deletion mutant, resistant",DSF2 5.32 6.68E
same,Z Score,"[2]; EMC4 deletion mutant, sensitive",EMC4 −7.92 1.90E
same,Z Score,"[2]; ERG2 deletion mutant, sensitive",ERG2 −7.80 4.76E
same,Z Score,"[2]; FYV8 deletion mutant, sensitive",FYV8 −9.11 1.11E
same,Z Score,"[2]; LCL1 deletion mutant, resistant",LCL1 5.79 4.51E
same,Z Score,"[2]; NBP2 deletion mutant, resistant",NBP2 5.43 1.57E
same,Z Score,"[2]; NUP170 deletion mutant, resistant",NUP170 5.33 2.79E
same,Z Score,"[2]; PIB2 deletion mutant, resistant",PIB2 4.96 2.79E
same,Pathway z score,"[2]; PKC pathway (most sensitive pathway), 88 μg/mL",−7.85
same,Z Score,"[2]; RGD1 deletion mutant, sensitive",RGD1 −10.16 1.21E
same,Z Score,"[2]; ROM2 deletion mutant, sensitive",ROM2 −9.47 8.88E
same,Z Score,"[2]; RPL21B deletion mutant, resistant",RPL21B 4.81 1.11E
same,Z Score,"[2]; RTS1 deletion mutant, resistant",RTS1 5.39 6.26E
same,Z Score,"[2]; SNG1 deletion mutant, sensitive",SNG1 −7.91 8.96E
same,Z Score,"[2]; SUR1 deletion mutant, resistant",SUR1 5.21 5.34E
same,lesion development on detached soybean leaves,[3],markedly reduced lesion development
